Laboratory results published in patent publication US8536204B2, “Amides and thioamides as pesticides” (Bayer CropScience AG, priority 2009, dated 2013).
Where two headings read alike, the source gives them in different places.

Experiments:
[1] = Determination of the logP values (formic acid method) by HPLC; format: physicochemical
Method: 1) Description of Method for Determining the LogP Values (Formic Acid Method)
The logP values reported in the table were determined according to EEC-Directive 79/831 Annex V.A8 by HPLC (High Performance Liquid Chromatography) on a reversed-phase column (C 18). Temperature: 55° C.
Eluents for the determination in the acidic range (pH 3.4):
Eluent A: acetonitrile+1 ml of formic acid/litre. Eluent B: water+0.9 ml of formic acid/litre.
Gradient: from 10% eluent A/90% eluent B to 95% eluent A/5% eluent B in 4.25 min.
The calibration was effected with unbranched alkan-2-ones (with 3 to 16 carbon atoms), whose logP values are known (determination of the logP values on the basis of the retention times by linear interpolation between two successive alkanones). The lambda-max values were determined with reference to the UV spectra from 200 nm to 400 nm in the maxima of the chromatographic signals.

[2] = test system: green peach aphid (Myzus persicae); experiment: Myzus test (spray treatment); format: in vivo; conditions: 144 h, read-out: efficacy in % (100% means that all aphids have been killed); for pest or weed control at 50 g/ha: application rate 50 g/ha
Method: Myzus Test (Spray Treatment)
Solvent: • 78 parts by weight of acetone • 1.5 parts by weight of dimethylformamide
Emulsifier: 0.5 part by weight of alkylaryl polyglycol ether
To produce an appropriate active ingredient formulation, 1 part by weight of active ingredient is mixed with the amounts of solvent and emulsifier specified and the concentrate is diluted to the desired concentration with emulsifier-containing water.
Chinese cabbage leaf slices (Brassica pekinensis) infested by all stages of the green peach aphid (Myzus persicae) are sprayed with an active ingredient formulation of the desired concentration.
After 6 days, the efficacy in % is determined. 100% means that all aphids have been killed; 0% means that no aphids have been killed.

[3] = reversed-phase HPLC column (C 18), pH 3.4, HPLC on reversed-phase column (C 18), acidic range (pH 3.4), 55° C., Table 1, read-out: logP (HCOOH)
[4] = spray on Chinese cabbage leaf slices, after 6 days
[5] = application rate 500 g/ha, spray on Chinese cabbage leaf slices, after 6 days
[6] = reversed-phase HPLC column (C 18), pH 3.4, formic acid method, pH 3.4, given in the preparation examples, read-out: log P (HCOOH)
[7] = HPLC on reversed-phase column (C 18), acidic range (pH 3.4), 55° C., Table 1, read-out: logP (HCOOH)

| Compound | chromatographic logP [1, 3] | pest or weed control at 500 g/ha [2, 5] [%] | also measured |
| --- | --- | --- | --- |
| CC(NC(=O)c1cnn(-c2cccnc2)c1)C1CC1 (centres unmarked) [Example 14] | 1.38 | 100 |  |
| Cc1nn(-c2cccnc2)cc1C(=O)N(C)C [Example 10] | 0.7 | 100 |  |
| CN(C)C(=O)c1cnn(-c2cccnc2)c1 [Example 4] | 0.6 |  | pest or weed control at 50 g/ha [2, 4]: 90% |
| CCOC(=O)c1cn(-c2cccnc2)nc1C [Ethyl 3-methyl-1-(pyridin-3-yl)-1H-pyrazole-4-carboxylate] |  |  | chromatographic logP [1, 6]: 1.83 |
| O=C(NCC1OCCO1)c1cnn(-c2cccnc2)c1 [Example 22] | 0.66 | 100 |  |
| FC(F)(F)CNC(=S)c1cnn(-c2cccnc2)c1 [Example 12, 1-(Pyridin-3-yl)-N-(2,2,2-trifluoroethyl)-1H-pyrazole-4-carbothioamide] | 1.97 | 80 | chromatographic logP [1, 6]: 1.97 |
| O=C(NC1(C(F)(F)F)CC1)c1cnn(-c2cccnc2)c1 [Example 13] | 1.4 | 100 |  |
| Cc1nn(-c2cccnc2)cc1C(=O)NCC(F)(F)F [Example 2, 3-Methyl-1-(pyridin-3-yl)-N-(2,2,2-trifluoroethyl)-1H-pyrazole-4-carboxamide] | 1.45 |  | chromatographic logP [1, 6]: 1.45; pest or weed control at 500 g/ha ([2]; in Brassica rapa): 100% |
| O=C(O)c1cnn(-c2cccnc2)c1 [1-(Pyridin-3-yl)-1H-pyrazole-4-carboxylic acid] |  |  | chromatographic logP [1, 6]: 0.5 |
| CON(C)C(=O)c1cnn(-c2cccnc2)c1 [Example 11] | 0.97 |  |  |
| COC(=O)NNC(=O)c1cn(-c2cccnc2)nc1C [Example 50] |  | 100 | chromatographic logP [1, 7]: 0.52 |
| COC(=O)N(C)NC(=O)c1cn(-c2cccnc2)nc1C [Example 54] |  | 100 | chromatographic logP [1, 7]: 0.79 |
| O=C(NCCC(F)(F)F)c1cnn(-c2cccnc2)c1 [Example 21] | 1.31 | 100 |  |
| Cc1nn(-c2cccnc2)cc1C(=O)NCc1ncccn1 [Example 7] | 0.78 | 100 |  |
| O=C(NCc1ccccn1)c1cnn(-c2cccnc2)c1 [Example 16] | 0.31 | 100 |  |
| CC(F)(F)CNC(=O)c1cnn(-c2cccnc2)c1 [Example 15] | 1.11 | 100 |  |
| O=C(NC1CC1)c1cnn(-c2cccnc2)c1 [Example 18] | 0.78 | 100 |  |
| CN(C(=O)c1cnn(-c2cccnc2)c1)C1CC1 [Example 19] | 1.09 | 100 |  |
| O=C(NCc1ncccn1)c1cnn(-c2cccnc2)c1 [Example 5] | 0.51 | 100 |  |
| CCNC(=O)c1cnn(-c2cccnc2)c1 [Example 1, N-Ethyl-1-(pyridin-3-yl)-1H-pyrazole-4-carboxamide] | 0.64 |  | chromatographic logP [1, 6]: 0.64; pest or weed control at 500 g/ha ([2]; in Brassica rapa): 100% |
| O=C(NCC(F)F)c1cnn(-c2cccnc2)c1 [Example 6] | 0.87 | 100 |  |
| O=C(NCC1Cc2ccccc2O1)c1cnn(-c2cccnc2)c1 (centres unmarked) [Example 17] | 1.68 |  |  |
| N#Cc1cnn(-c2cccnc2)c1 [1-(Pyridin-3-yl)-1H-pyrazole-4-carbonitrile] |  |  | chromatographic logP [1, 6]: 0.98 |
| CN(CC(F)(F)F)C(=O)c1cnn(-c2cccnc2)c1 [Example 8] | 1.43 | 100 |  |
| O=C(NCc1nc(C2CC2)no1)c1cnn(-c2cccnc2)c1 [Example 20] | 1.21 | 100 |  |
| Cc1nn(-c2cccnc2)cc1C(=O)O [3-Methyl-1-(pyridin-3-yl)-1H-pyrazole-4-carboxylic acid] |  |  | chromatographic logP [1, 6]: 0.77 |

Further lines, with some results ahead:

| chromatographic logP [1, 3] | Compound | pest or weed control at 500 g/ha [2, 5] [%] | also measured |
| --- | --- | --- | --- |
| 1.69 | O=C(NCC(F)(F)C(F)(F)F)c1cnn(-c2cccnc2)c1 [Example 52] |  | pest or weed control at 50 g/ha [2, 4]: 90% |
| 1.63 | Cc1nn(-c2cccnc2)cc1C(=O)NC1(C(F)(F)F)CC1 [Example 47] | 100 |  |
| 1.57 | Cc1nn(-c2cccnc2)cc1C(=O)N(C)CC(F)(F)F [Example 37] | 100 |  |
| 1.37 | COc1cc(OC)nc(CNC(=O)c2cnn(-c3cccnc3)c2)n1 [Example 51] |  |  |
| 1.58 | Cc1nn(-c2cccnc2)cc1C(=O)NC(C)C1CC1 (centres unmarked) [Example 26] | 100 | logP (HCOOH) ([1]; HPLC on reversed-phase column (C 18), acidic range (pH 3.4), 55° C., Table 1): 1.45 |
| 1.9 | Cc1nn(-c2cccnc2)cc1C(=O)NCC1Cc2ccccc2O1 (centres unmarked) [Example 56] |  |  |
| 0.52 | N#CCNC(=O)c1cnn(-c2cccnc2)c1 [Example 40] | 100 |  |
| 1.43 | Cc1nn(-c2cccnc2)cc1C(=O)NCc1nc(C2CC2)no1 [Example 48] | 100 |  |
| 0.91 | CCNC(=O)c1cn(-c2cccnc2)nc1C [Example 39] | 100 |  |
| 0.91 | COC(=O)C(C)NC(=O)c1cnn(-c2cccnc2)c1 (centres unmarked) [Example 55] |  | pest or weed control at 50 g/ha [2, 4]: 90% |
| 1.95 | Cc1nn(-c2cccnc2)cc1C(=O)NCC(F)(F)C(F)(F)F [Example 31] | 100 |  |
| 0.87 | Cc1nn(-c2cccnc2)cc1C(=O)NCCF [Example 38] | 100 |  |
| 1.09 | CN(C(=O)c1cnn(-c2cccnc2)c1)C(C)(C)C#N [Example 42] | 100 |  |
| 1.32 | Cc1nn(-c2cccnc2)cc1C(=O)NCC1CC1 [Example 36] | 100 |  |
| 1.17 | Cc1nn(-c2cccnc2)cc1C(=O)N(C)C1CC1 [Example 29] | 100 |  |
| 0.7 | O=C(NCC1COCCO1)c1cnn(-c2cccnc2)c1 (centres unmarked) [Example 23] | 100 |  |

| chromatographic logP [1, 3] | Compound | pest or weed control at 500 g/ha [2, 5] [%] | also measured |
| --- | --- | --- | --- |
| 0.76 | N#CC1(NC(=O)c2cnn(-c3cccnc3)c2)CC1 [Example 53] |  | pest or weed control at 50 g/ha [2, 4]: 90% |
| 0.52 | Cc1nn(-c2cccnc2)cc1C(=O)NCc1ccccn1 [Example 28] | 100 |  |
| 1.12 | Cc1nn(-c2cccnc2)cc1C(=O)NCC(F)F [Example 46] | 100 |  |
| 0.91 | Cc1nn(-c2cccnc2)cc1C(=O)NCC1COCCO1 (centres unmarked) [Example 34] | 100 |  |
| 1.16 | O=C(NCC1CC1)c1cnn(-c2cccnc2)c1 [Example 25] | 100 |  |
| 2.56 | Cc1nn(-c2cccnc2)cc1C(=O)NCCOc1cc(Cl)ccc1Cl [Example 57] |  |  |
| 1.4 | CC(C)C(C#N)NC(=O)c1cnn(-c2cccnc2)c1 (centres unmarked) [Example 41] | 100 |  |
| 1.35 | Cc1nn(-c2cccnc2)cc1C(=O)NCC(C)(F)F [Example 27] | 100 |  |
| 0.84 | COC(=O)C1(NC(=O)c2cnn(-c3cccnc3)c2)CC1 [Example 45] | 100 |  |
| 0.83 | COC(CNC(=O)c1cnn(-c2cccnc2)c1)OC [Example 24] | 100 |  |
| 1.2 | Cc1cc(C)nc(CNC(=O)c2cn(-c3cccnc3)nc2C)n1 [Example 49] | 100 |  |
| 0.88 | Cc1nn(-c2cccnc2)cc1C(=O)NCC1OCCO1 [Example 33] | 100 |  |
| 1.04 | COC(CNC(=O)c1cn(-c2cccnc2)nc1C)OC [Example 35] | 100 |  |
| 1.52 | Cc1nn(-c2cccnc2)cc1C(=O)NCCC(F)(F)F [Example 32] | 100 |  |
| 1.14 | COC(=O)C(C)NC(=O)c1cn(-c2cccnc2)nc1C (centres unmarked) [Example 43] | 100 |  |
| 0.79 | Cc1nn(-c2cccnc2)cc1C(=O)NCC#N [Example 44] |  |  |
